This experiment relates to post-operative pain model in rats. Kind of experiment: Mechanical allodynia (von Frey filaments) in the post-operative pain model (plantar incision). Type of experiment: in vivo. On the procedure: The induction of anesthesia in rats was performed with 3% isofluran for veterinary use, employing an Ohmeda vaporizer and an anesthesia chamber. Anesthesia was kept during the surgical operation by a tube which directs the isofluran vapors to the animal's snout. Once the rats were anesthetized, they were laid down in a prone position and their right hind paws were cleaned out with alcohol.
Then, a skin incision in the hindpaw of about 10 mm was made by means of a scalpel, starting about 5 mm from the heel and extending toward the toes. Fascia was located and by means of curve scissors muscle was elevated and a longitudinal incision of about 5 mm was made, thus the muscle origin and insertion remained intact. The skin of the paw was stitched with a suturing stitch with breaded silk (3.0) and the wound was cleaned out with povidone.
The assessment was performed 30 minutes after the administration of product and always 4 hours after the plantar incision. The analysis was carried out evaluating the mechanical allodynia. It was tested using von Frey filaments: Animals were placed in methacrylate cylinders on an elevated surface, with metallic mesh floor perforated in order to apply the filaments. After an acclimation period of about 30 minutes within the cylinders, both hindpaws were stimulated (the injured and the non-injured paw, serving the latter as control), starting with the lowest force filament (0.4 g) and reaching a 15 g filament. The animal's response to pain was manifested by the withdrawal of the paw as a consequence of the painful stimulus caused by a filament.
The efficacy of the combined use of Pregabalin and compound 63.HCl was tested at different doses of compound 63.HCl (5, 10, 20, 40 and 80 mg/kg), while the Pregabalin dose remained constant (0.04 mg/kg). The administrations were performed 3.5 hours after surgery. The treated subjects were tested according to the mechanical allodynia protocol above (FIG. 1).
The efficacy of the combined use of Gabapentin and compound 63.HCl was tested at different doses of compound 63.HCl (10, 20, 40 and 80 mg/kg), while the Gabapentin dose remained constant (10 mg/kg). The administrations were performed 3.5 hours after surgery. The treated subjects were tested according to the mechanical allodynia protocol above (FIG. 2).

As a reminder, the ED50 is the dose at which the effect has come halfway, by size or by number of responders. Higher therefore signals a need for a large dose.

Where a name gives a salt, the structure may show the parent alone.

With `NCC1(CC(=O)O)CCCCC1` [Gabapentin], the “effect (analgesia, mechanical allodynia)” value (Gabapentin alone at 10 mg/kg, non-significant, FIG. 2) is given as 0±2%.

Regarding `CC(C)C[C@H](CN)CC(=O)O` [Pregabalin], the “effect (analgesia, mechanical allodynia)” value (Pregabalin alone, sub-active dose 0.04 mg/kg, FIG. 1) is given as “non-significant effect”.

`Cc1cc(OCCN2CCOCC2)nn1-c1ccc2ccccc2c1` [compound 63.HCl, 4-{2-[5-Methyl-1-(naphthalen-2-yl)-1H-pyrazol-3-yloxy]ethyl}morpholine hydrochloride]: it took a dose of 40 mg/kg to reach the 50% effect level (Rattus norvegicus, compound alone, 10, 20, 40 and 80 mg/kg, FIG. 2) (ED50). Besides, the Emax (Rattus norvegicus, compound alone, dose dependent (5, 10, 20, 40 and 80 mg/kg), FIG. 1, 30 min after administration, 4 h after plantar incision, read-out: maximum effect) is 43%.

Source of the values: US20160310501A1, “GABA[…] SIGMA RECEPTOR LIGANDS COMBINATIONS” (LABORATORIOS DEL DR. ESTEVE, S.A., priority 2013, published 2016).
